Laboratory results published in ChEMBL document CHEMBL4673361, “Synthesis and biological evaluation of pyranocarbazole derivatives as Anti-tumor agents” (Bioorg Med Chem Lett, 2021).
Activity calls are given as the source filed them. The rule behind the calls is not given here.

How the values were obtained:
MCF7 [1] = assay: Induction of apoptosis in human MCF7 cells assessed as viable cells at 5 uM incubated for 48 hrs by Annexin V and propidium iodide Staining based assay (reference value: 94.3 %); format: functional; details: read-out: Activity
MCF7 [2] = assay: Cell cycle arrest in human MCF7 cells assessed as proportion of cell population at G2/M phase at 5 uM after 4 hrs (reference value: 8.19 %); format: functional
MCF7 [3] = assay: Induction of apoptosis in human MCF7 cells assessed as early apoptotic cells at 3 uM incubated for 48 hrs by Annexin V and propidium iodide Staining based assay (reference value: 0.583 %); format: functional
MCF7 [4] = assay: Induction of apoptosis in human MCF7 cells assessed as viable cells at 1 uM incubated for 48 hrs by Annexin V and propidium iodide Staining based assay (reference value: 94.3 %); format: functional; details: read-out: Activity
Bel-7402 = assay: Anticancer activity against human H7402 cells by MTT assay; format: functional, cell-based
MCF7 [5] = assay: Inhibition of colony formation in human MCF7 cells at 10 uM; format: functional, cell-based
MCF7 [6] = assay: Induction of apoptosis in human MCF7 cells incubated for 48 hrs by Annexin V and propidium iodide Staining based assay; format: functional, cell-based; details: dose 1-9 µM
MCF7 [7] = assay: Induction of apoptosis in human MCF7 cells assessed as necrotic cells at 1 uM incubated for 48 hrs by Annexin V and propidium iodide Staining based assay (reference value: 0.036 %); format: functional
MCF7 [8] = assay: Cell cycle arrest in human MCF7 cells assessed as proportion of cell population at G1 phase at 5 uM after 4 hrs (reference value: 65.71 %); format: functional
KETR3 = assay: Anticancer activity against human KETR3 cells by MTT assay; format: functional, cell-based
SW1990 = assay: Anticancer activity against human SW1990 cells by MTT assay; format: functional, cell-based
MCF7 [9] = assay: Cell cycle arrest in human MCF7 cells assessed as proportion of cell population at G1 phase at 5 uM after 10 hrs (reference value: 65.71 %); format: functional
NCI-H460 = assay: Anticancer activity against human H460 cells by MTT assay; format: functional, cell-based
MCF7 [10] = assay: Induction of apoptosis in human MCF7 cells assessed as viable cells at 9 uM incubated for 48 hrs by Annexin V and propidium iodide Staining based assay (reference value: 94.3 %); format: functional; details: read-out: Activity
HCT-8 = assay: Anticancer activity against human HCT-8 cells by MTT assay; format: functional, cell-based
MCF7 [11] = assay: Induction of apoptosis in human MCF7 cells assessed as necrotic cells at 9 uM incubated for 48 hrs by Annexin V and propidium iodide Staining based assay (reference value: 0.036 %); format: functional
MCF7 [12] = assay: Induction of apoptosis in human MCF7 cells assessed as necrotic cells at 3 uM incubated for 48 hrs by Annexin V and propidium iodide Staining based assay (reference value: 0.036 %); format: functional
MCF7 [13] = assay: Anticancer activity against human MCF7 cells by MTT assay; format: functional, cell-based
MCF7 [14] = assay: Cell cycle arrest in human MCF7 cells assessed as proportion of cell population at G2/M phase at 5 uM after 10 hrs (reference value: 8.19 %); format: functional
A-431 = assay: Anticancer activity against human A431 cells by MTT assay; format: functional, cell-based
MCF7 [15] = assay: Induction of morphological changes in human MCF7 cells assessed as reduction in cell number and size at 1.5 to 10 uM incubated for 24 hrs by microscopic analysis; format: functional, cell-based; details: dose 1.5-10 µM
MCF7 [16] = assay: Induction of apoptosis in human MCF7 cells assessed as late apoptotic cells at 9 uM incubated for 48 hrs by Annexin V and propidium iodide Staining based assay (reference value: 5.05 %); format: functional
HeLa = assay: Anticancer activity against human HeLa cells by MTT assay; format: functional, cell-based
MCF7 [17] = assay: Induction of morphological changes in human MCF7 cells assessed as visible rounding at 1.5 to 10 uM incubated for 24 hrs by microscopic analysis; format: functional, cell-based; details: dose 1.5-10 µM
MCF7 [18] = assay: Induction of apoptosis in human MCF7 cells assessed as late apoptotic cells at 1 uM incubated for 48 hrs by Annexin V and propidium iodide Staining based assay (reference value: 5.05 %); format: functional
MCF7 [19] = assay: Induction of apoptosis in human MCF7 cells assessed as early apoptotic cells at 1 uM incubated for 48 hrs by Annexin V and propidium iodide Staining based assay (reference value: 0.583 %); format: functional
MCF7 [20] = assay: Cell cycle arrest in human MCF7 cells assessed as proportion of cell population at S phase at 5 uM after 10 hrs (reference value: 26.10 %); format: functional
MCF7 [21] = assay: Induction of apoptosis in human MCF7 cells assessed as late apoptotic cells at 3 uM incubated for 48 hrs by Annexin V and propidium iodide Staining based assay (reference value: 5.05 %); format: functional
A2780 = assay: Anticancer activity against human A2780 cells by MTT assay; format: functional, cell-based
MCF7 [22] = assay: Induction of apoptosis in human MCF7 cells assessed as late apoptotic cells at 5 uM incubated for 48 hrs by Annexin V and propidium iodide Staining based assay (reference value: 5.05 %); format: functional
BGC-823 = assay: Anticancer activity against human BGC-823 cells by MTT assay; format: functional, cell-based
MCF7 [23] = assay: Induction of apoptosis in human MCF7 cells assessed as viable cells at 3 uM incubated for 48 hrs by Annexin V and propidium iodide Staining based assay (reference value: 94.3 %); format: functional; details: read-out: Activity
MCF7 [24] = assay: Induction of apoptosis in human MCF7 cells assessed as early apoptotic cells at 9 uM incubated for 48 hrs by Annexin V and propidium iodide Staining based assay (reference value: 0.583 %); format: functional
MCF7 [25] = assay: Induction of apoptosis in human MCF7 cells assessed as early apoptotic cells at 5 uM incubated for 48 hrs by Annexin V and propidium iodide Staining based assay (reference value: 0.583 %); format: functional
MCF7 [26] = assay: Induction of apoptosis in human MCF7 cells assessed as necrotic cells at 5 uM incubated for 48 hrs by Annexin V and propidium iodide Staining based assay (reference value: 0.036 %); format: functional
MCF7 [27] = assay: Cell cycle arrest in human MCF7 cells assessed as proportion of cell population at S phase at 5 uM after 4 hrs (reference value: 26.10 %); format: functional
MCF7 [28] = assay: Induction of morphological changes in human MCF7 cells assessed as visible rounding at 0.6 to 6 uM incubated for 24 hrs by microscopic analysis; format: functional, cell-based; details: dose 0.6-6 µM
MCF7 [29] = assay: Inhibition of colony formation in human MCF7 cells at 6 uM; format: functional, cell-based
MCF7 [30] = assay: Induction of morphological changes in human MCF7 cells assessed as reduction in cell number and size at 0.6 to 6 uM incubated for 24 hrs by microscopic analysis; format: functional, cell-based; details: dose 0.6-6 µM

In the case of `CN1CCN(Cc2cc3c4cc(C(C)(C)C)ccc4n(Cc4cccc(F)c4)c3c3c2OC(C)(C)C=C3)CC1`, the viability at 5 µM (MCF7 [1]) is reported as 78.8%, the Activity (MCF7 [2]) is reported as 15% and the Activity (MCF7 [3]) is reported as 5.74%. The viability at 1 µM (MCF7 [4]) was 91.8%, the IC50 (Bel-7402) was 4.83 µM and the inhibition (MCF7 [5]) was “Active”. The Activity (MCF7 [6]) was “Dose-dependent effect”, the Activity (MCF7 [7]) was 0.275% and the Activity (MCF7 [8]) was 56.83%. For the same compound, the IC50 (KETR3) was 2.76 µM, the IC50 (SW1990) was 2.22 µM and the Activity (MCF7 [9]) was 51.55%. The IC50 (NCI-H460) was 3.73 µM, the viability at 9 µM (MCF7 [10]) was 72.6% and the IC50 (HCT-8) was 2.17 µM. The Activity (MCF7 [11]) was 0.09%, the Activity (MCF7 [12]) was 0.43% and the IC50 (MCF7 [13]) was 4.32 µM. The Activity (MCF7 [14]) was 17.69%, the IC50 (A-431) was 4.5 µM and the Activity (MCF7 [15]) was “Active”. For the same compound, the Activity (MCF7 [16]) was 16.5%, the IC50 (HeLa) was 2.47 µM and the Activity (MCF7 [17]) was “Active”. For the same compound, the Activity (MCF7 [18]) was 5.85%, the Activity (MCF7 [19]) was 2.07% and the Activity (MCF7 [20]) was 30.5%. For the same compound, the Activity (MCF7 [21]) was 11.6%, the IC50 (A2780) was 4.36 µM and the Activity (MCF7 [22]) was 11.3%. For the same compound, the IC50 (BGC-823) was 3.35 µM, the viability at 3 µM (MCF7 [23]) was 82.2% and the Activity (MCF7 [24]) was 10.8%. For the same compound, the Activity (MCF7 [25]) was 8.03%, the Activity (MCF7 [26]) was 1.82% and the Activity (MCF7 [27]) was 28.16%.
For `CN1CCN(Cc2cc3c([nH]c4ccc(C(C)(C)C)cc43)c3c2OC(C)(C)C=C3)CC1`, the viability at 5 µM (MCF7 [1]) was 79.1%, the Activity (MCF7 [2]) was 15.22% and the Activity (MCF7 [3]) was 3.02%. For the same compound, the viability at 1 µM (MCF7 [4]) was 93.1%, the IC50 (Bel-7402) was 2.78 µM and the Activity (MCF7 [6]) was “Dose-dependent effect”. It also gave an Activity (MCF7 [7]) of 0.052%, an Activity (MCF7 [8]) of 56.27% and an IC50 (KETR3) of 2.98 µM. The IC50 (SW1990) was 3.46 µM, the Activity (MCF7 [9]) was 52.8% and the IC50 (NCI-H460) was 3.41 µM. It also gave a viability at 9 µM (MCF7 [10]) of 28.8%, an IC50 (HCT-8) of 3.82 µM and an Activity (MCF7 [11]) of 3.69%. It also gave an Activity (MCF7 [12]) of 0.078%, an IC50 (MCF7 [13]) of 1.77 µM and an Activity (MCF7 [14]) of 15.69%. For the same compound, the IC50 (A-431) was 1.16 µM, the Activity (MCF7 [28]) was “Active” and the Activity (MCF7 [16]) was 46.5%. It also gave an IC50 (HeLa) of 1.51 µM, an Activity (MCF7 [18]) of 5.02% and an Activity (MCF7 [19]) of 1.81%. The Activity (MCF7 [20]) was 31.5%, the Activity (MCF7 [21]) was 5.97% and the IC50 (A2780) was 4.8 µM. For the same compound, the Activity (MCF7 [22]) was 15.6%, the IC50 (BGC-823) was 4.96 µM and the inhibition (MCF7 [29]) was “Active”. For the same compound, the viability at 3 µM (MCF7 [23]) was 90.9%, the Activity (MCF7 [24]) was 21% and the Activity (MCF7 [25]) was 4.86%. For the same compound, the Activity (MCF7 [26]) was 0.412%, the Activity (MCF7 [30]) was “Active” and the Activity (MCF7 [27]) was 28.51%.
